{"source": "patent US10307352B2", "about": "“Low oil compositions comprising a 4-substituted resorcinol and a high carbon chain ester” (Johnson & Johnson Consumer Inc., priority 2012, dated 2019)", "data": [{"tested_on": "IL-8 cytokine release", "assay": "IL-8 assay: TNFα-induced IL-8 cytokine release from topically treated epidermal equivalents (EPI 200 HCF)", "assay_type": "cell-based, human", "settings": "ester added to 4-hexyl resorcinol-containing composition; result in words", "protocol": "An IL-8 assay was performed on the compositions of Example I to investigate the release of pro-inflammatory mediators in human epithelial cells as follows.\nEpidermal equivalents (EPI 200 HCF), multilayer and differentiated epidermis consisting of normal human epidermal keratinocytes, were purchased from MatTek (Ashland, Mass.). Upon receipt, epidermal equivalents were incubated for 24 hours at 37° C. in maintenance medium without hydrocortisone. Equivalents were topically treated (2 mg/cm^2) with formulation in example 1 for 2 hours before exposure to 100 ng/mL of Tumor Necrosis Factor-α (TNFα, available from Sigma-Aldrich of St Louis, Mo.). Equivalents were incubated for 4 hours at 37° C. with maintenance medium then supernatants were analyzed for IL-8 cytokine release using commercially available kits (Upstate Biotechnology, Charlottesville, Va.). Percent Reduction in IL-8 was calculated for the compositions relative to Comparative Composition C1 (without ester): Percent Reduction=[1−(Valuesample/Valuebase)]×100 where Valuesample was the IL-8 level of the composition tested and Valuebase was the IL-8 value of Comparative Composition C1.\nAdditional IL-8 Assays were performed as described in Example II. Compositions (described in Table 2) containing 4-hexyl resorcinol with different esters, each present at 3% by weight, were compared with Composition 6 according to the invention containing 3% by weight pentaerythritol tetraethylhexanoate.", "values": [{"molecule": "CCCCC(CC)C(=O)OCC(COC(=O)C(CC)CCCC)(COC(=O)C(CC)CCCC)COC(=O)C(CC)CCCC", "note": "(stereo not shown) [pentaerythritol tetraethylhexanoate]", "boost in the activity (IL-8 inhibition) of 4-hexyl resorcinol over compositions without the ester": "substantial boost"}, {"molecule": "isononyl isonanoate", "boost in the activity (IL-8 inhibition) of 4-hexyl resorcinol over compositions without the ester": "only a modest boost or no boost at all"}, {"molecule": "CCCCCCC(=O)OCC(C)(C)COC(=O)CCCCCC", "note": "[neopentyl glycol diheptanoate]", "boost in the activity (IL-8 inhibition) of 4-hexyl resorcinol over compositions without the ester": "only a modest boost or no boost at all"}, {"molecule": "octyldodecyl neopentanoate", "boost in the activity (IL-8 inhibition) of 4-hexyl resorcinol over compositions without the ester": "substantial boost"}]}]}
